Literature values, collected in US20230022060A1, “TURKESTERONE HYDROXYPROPYL B-CYCLIC DEXTRIN COMPLEX AND METHOD OF MANUFACTURING THEREOF” (Gorilla Mind, LLC, priority 2021, published 2023).

What was measured:
[1] = system: Staphylococcus aureus, Bacillus subtilis and Escherichia coli; conditions: three bacteria
[2] = 100 mL water at 25° C.

Compound | difference of antimicrobial activity between chlorogenic acid and its complex [1] | amount that can be dissolved in water [2]
O=C(/C=C/c1ccc(O)c(O)c1)O[C@@H]1C[C@](O)(C(=O)O)C[C@@H](O)[C@H]1O [chlorogenic acid] | No significant difference | –
OC[C@H]1O[C@@H]2O[C@H]3[C@H](O)[C@@H](O)[C@@H](O[C@H]4[C@H](O)[C@@H](O)[C@@H](O[C@H]5[C@H](O)[C@@H](O)[C@@H](O[C@H]6[C@H](O)[C@@H](O)[C@@H](O[C@H]7[C@H](O)[C@@H](O)[C@@H](O[C@H]1[C@H](O)[C@H]2O)O[C@@H]7CO)O[C@@H]6CO)O[C@@H]5CO)O[C@@H]4CO)O[C@@H]3CO [α-cyclodextrin] | – | About 14 g in 100 mL water
